The subject of data set [1] is Trypanosoma cruzi. Put plainly: Antitrypanosomal activity against Trypanosoma cruzi clone Dm28c metacyclic trypomastigotes infected in BALB/c mouse assessed as increase in survival rate at 220 mg/kg/day, ip measured after 20 days (reference value: 25%). In kind it is functional.
Data set [2] deals with Trypanosoma cruzi. Description: Antitrypanosomal activity against Trypanosoma cruzi clone Dm28c metacyclic trypomastigotes infected in mouse assessed as decrease in heart parasitemia at 220 mg/kg/day, ip measured after 20 days. The format is functional, organism-based.
The subject of data set [3] is Trypanosoma cruzi. Put plainly: Antitrypanosomal activity against Trypanosoma cruzi clone Dm28c metacyclic trypomastigotes infected in mouse assessed as decrease in heart parasite burden at 220 mg/kg/day, ip measured after 20 days. The format is functional, organism-based.
Another data set concerns Mus musculus. Put plainly: Toxicity in BALB/c mouse at 220 mg/kg/day, ip measured after 20 days. In kind it is organism-based. Details: route intraperitoneal. Particulars: in vivo, 480 h.
The subject of data set [4] is Trypanosoma cruzi. Put plainly: Antitrypanosomal activity against Trypanosoma cruzi clone Dm28c metacyclic trypomastigotes infected in BALB/c mouse assessed as increase in survival rate at 30 mg/kg/day, ip measured after 20 days. The format is functional, organism-based.
The test system of data set [5] is Trypanosoma cruzi. Put plainly: Antitrypanosomal activity against Trypanosoma cruzi clone Dm28c metacyclic trypomastigotes infected in mouse assessed as decrease in heart parasitemia at 30 mg/kg/day, ip measured after 20 days. In kind it is functional, organism-based.
Data set [6] relates to Trypanosoma cruzi. Description: Antitrypanosomal activity against Trypanosoma cruzi clone Dm28c metacyclic trypomastigotes infected in mouse assessed as decrease in heart parasite burden at 30 mg/kg/day, ip measured after 20 days. The format is functional, organism-based.
Data set [7] relates to Trypanosoma cruzi. Put plainly: Antitrypanosomal activity against Trypanosoma cruzi clone Dm28c metacyclic trypomastigotes infected in BALB/c mouse assessed as increase in survival rate at 10 mg/kg/day, ip measured after 20 days. In kind it is functional. Particulars: 480 h, route intraperitoneal.
In data set [8] the test system is Trypanosoma cruzi. Put plainly: Antitrypanosomal activity against Trypanosoma cruzi clone Dm28c metacyclic trypomastigotes infected in BALB/c mouse assessed as increase in survival rate at 2.5 mg/kg/day, ip measured after 20 days. In kind it is functional, organism-based.

Active and inactive are the calls of the source. The calls are words filed in the database; no cut-off is given here. Where only a bound is given, the exact number is not on record here.

With `CCCCS(=N)(=O)CCC(N)C(=O)O` (stereo not given) [BUTHIONINE SULFOXIMINE], the result in the data set on Trypanosoma cruzi [1], with Trypanosoma cruzi [2] and in the data set on Trypanosoma cruzi [3] was Active. Also, in the data set with Trypanosoma cruzi [1] (480 h, route intraperitoneal), the survival at 220 mg/kg/day is at most 80%. Besides, the Activity result in the data set on Mus musculus is “Non-toxic”. The result in the data set on Trypanosoma cruzi [4], in the data set with Trypanosoma cruzi [5], with Trypanosoma cruzi [6] and in the data set with Trypanosoma cruzi [8] was inactive. Further, the survival at 10 mg/kg/day in the data set with Trypanosoma cruzi [7] was at most 100%.

Values taken from ChEMBL document CHEMBL1255344, “Buthionine sulfoximine has anti-Trypanosoma cruzi activity in a murine model of acute Chagas' disease and enhances the efficacy of nifurtimox” (Antimicrob Agents Chemother, 2008).
